Results published in patent publication US7943770B2, “Fused quinoline derivative and use thereof” (Takeda Pharmaceutical Company Limited, priority 2004, dated 2011).

What follows are compounds tested against T1, hNK2 receptor (Homo sapiens, UniProt P21452) (assay: Radio-ligand ([125I]-NKA) receptor binding inhibitory activity using membrane fraction of hNK2 receptor-expressing CHO cell). Details: membrane fraction of hNK2 receptor-expressing CHO cells, 25° C., 30 min.
T1 construct: host or cells: CHO cells
T1 sequence (P21452 1-398): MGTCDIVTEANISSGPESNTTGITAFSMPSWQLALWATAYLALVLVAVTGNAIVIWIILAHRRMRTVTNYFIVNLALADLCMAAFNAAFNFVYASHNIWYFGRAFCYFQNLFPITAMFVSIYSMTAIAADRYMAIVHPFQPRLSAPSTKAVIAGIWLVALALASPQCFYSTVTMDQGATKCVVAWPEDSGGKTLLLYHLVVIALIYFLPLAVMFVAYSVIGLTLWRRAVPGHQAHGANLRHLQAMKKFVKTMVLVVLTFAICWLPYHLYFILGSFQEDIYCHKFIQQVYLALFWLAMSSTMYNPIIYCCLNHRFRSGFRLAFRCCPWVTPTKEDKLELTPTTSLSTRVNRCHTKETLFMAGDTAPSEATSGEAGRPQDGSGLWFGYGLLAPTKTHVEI
In short: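 Membranes from hNK2-expressing CHO cells (20 μg/mL suspension) incubated with test compound and [125I]-NKA ([…] solution as added) in Tris-HCl pH 7.4 with BSA, protease inhibitors, 3 mM MnCl2, 25 °C, 30 min. Bound radioactivity by GF/C filtration and scintillation; inhibition expressed relative to specific binding (total minus unlabeled-NKA non-specific).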

Row | Structure (SMILES) | IC50 [nM]
1 | Cc1ccc(NC(=O)N[C@@H]2CCCC[C@@H]2C(=O)N2CC[C@@H]3[C@H](c4ccccc4)Nc4ccccc4[C@@H]32)cc1 [Example 138, N-(4-Methylphenyl)-N′-((1R,2S)-2-{[(3aR,4R,9bR)-4-phenyl-2,3,3a,4,5,9b-hexahydro-1H-pyrrolo[3,2-c]quinolin-1-yl]carbonyl}cyclohexyl)urea] | < 1
2 | COC[C@@H]1Nc2ccccc2[C@H]2[C@@H]1CCN2C(=O)[C@H]1CCCC[C@H]1NC(=O)c1ccc(C)nc1 [Example 211, N-((1R,2S)-2-{[(3aR,4R,9bR)-4-(Methoxymethyl)-2,3,3a,4,5,9b-hexahydro-1H-pyrrolo[3,2-c]quinolin-1-yl]carbonyl}cyclohexyl)-6-methylnicotinamide] | < 10
3 | CC(C)C[C@@H]1Nc2ccccc2[C@H]2[C@@H]1CCN2C(=O)[C@H]1CCCC[C@H]1NC(=O)c1ccccc1 [Example 66, N-((1R,2S)-2-{[(3aR,4S,9bR)-4-Isobutyl-2,3,3a,4,5,9b-hexahydro-1H-pyrrolo[3,2-c]quinolin-1-yl]carbonyl}cyclohexyl)benzamide] | < 10
4 | COC[C@@H]1Nc2ccccc2[C@H]2[C@@H]1CCN2C(=O)[C@H]1CCCC[C@H]1NC(=O)c1ccccc1C#N [Example 232, 2-Cyano-N-((1R,2S)-2-{[(3aR,4R,9bR)-4-(methoxymethyl)-2,3,3a,4,5,9b-hexahydro-1H-pyrrolo[3,2-c]quinolin-1-yl]carbonyl}cyclohexyl)benzamide] | < 10
5 | CCNC(=O)N[C@@H]1CCCC[C@@H]1C(=O)N1CC[C@@H]2[C@H](C3CC3)Nc3ccccc3[C@@H]21 [Example 185, N-((1R,2S)-2-{[(3aR,4S,9bR)-4-Cyclopropyl-2,3,3a,4,5,9b-hexahydro-1H-pyrrolo[3,2-c]quinolin-1-yl]carbonyl}cyclohexyl)-N′-ethylurea] | < 10
6 | O=C(/C=C/c1ccc(C(F)(F)F)cc1)N[C@@H]1CCCC[C@@H]1C(=O)N1CC[C@@H]2[C@H](c3ncc[nH]3)Nc3ccccc3[C@@H]21 [Example 294, (2E)-N-((1R,2S)-2-{[(3aR,4R,9bR)-4-(1H-Imidazol-2-yl)-2,3,3a,4,5,9b-hexahydro-1H-pyrrolo[3,2-c]quinolin-1-yl]carbonyl}cyclohexyl)-3-[4-(trifluoromethyl)phenyl]acrylamide] | < 1
7 | O=C(Nc1ccccc1)N[C@@H]1CCCC[C@@H]1C(=O)N1CC[C@@H]2[C@H](c3ccsc3)Nc3ccccc3[C@@H]21 [Example 186, N-Phenyl-N′-((1R,2S)-2-{[(3aR,4R,9bR)-4-(3-thienyl)-2,3,3a,4,5,9b-hexahydro-1H-pyrrolo[3,2-c]quinolin-1-yl]carbonyl}cyclohexyl)urea] | < 1
8 | COc1ccc(/C=C/C(=O)N[C@@H]2CCCC[C@@H]2C(=O)N2CC[C@@H]3[C@H](c4ccccc4)Nc4ccccc4[C@@H]32)cc1 [Example 105, (2E)-3-(4-Methoxyphenyl)-N-((1R,2S)-2-{[(3aR,4R,9bR)-4-phenyl-2,3,3a,4,5,9b-hexahydro-1H-pyrrolo[3,2-c]quinolin-1-yl]carbonyl}cyclohexyl)acrylamide] | < 1
9 | COC[C@@H]1Nc2ccccc2[C@H]2[C@@H]1CCN2C(=O)[C@H]1CCCC[C@H]1NC(=O)Nc1ccc(C#N)cc1 [Example 217, N-(Cyanophenyl)-N′-((1R,2S)-2-{[(3aR,4R,9bR)-4-(methoxymethyl)-2,3,3a,4,5,9b-hexahydro-1H-pyrrolo[3,2-c]quinolin-1-yl]carbonyl}cyclohexyl)urea] | < 1
10 | O=C(N[C@@H]1CCCC[C@@H]1C(=O)N1CC[C@@H]2[C@H](c3ccccc3)Nc3ccccc3[C@@H]21)c1cccs1 [Example 89, N-((1R,2S)-2-{[(3aR,4R,9bR)-4-Phenyl-2,3,3a,4,5,9b-hexahydro-1H-pyrrolo[3,2-c]quinolin-1-yl]carbonyl}cyclohexyl)thiophene-2-carboxamide] | < 10
11 | Cc1nc2cc(C(=O)N[C@@H]3CCCC[C@@H]3C(=O)N3CC[C@@H]4[C@H](c5ccsc5)Nc5ccccc5[C@@H]43)ccc2[nH]1 [Example 192, 2-Methyl-N-((1R,2S)-2-{[(3aR,4R,9bR)-4-(3-thienyl)-2,3,3a,4,5,9b-hexahydro-1H-pyrrolo[3,2-c]quinolin-1-yl]carbonyl}cyclohexyl)-1H-benzimidazole-5-carboxamide] | < 1
12 | O=C(N[C@@H]1CCCC[C@@H]1C(=O)N1CC[C@@H]2[C@H](C3CC3)Nc3ccccc3[C@@H]21)c1ccccc1 (relative stereo) [Example 29, N-((1R,2S)-2-{[(3aR*,4S*,9bR*)-4-Cyclopropyl-2,3,3a,4,5,9b-hexahydro-1H-pyrrolo[3,2-c]quinolin-1-yl]carbonyl}cyclohexyl)benzamide] | < 10
13 | COC[C@@H]1Nc2ccccc2[C@H]2[C@@H]1CCN2C(=O)[C@H]1CCCC[C@H]1NC(=O)Nc1ccc(N2CCOCC2)nc1 [Example 289, N-((1R,2S)-2-{[(3aR,4R,9bR)-4-(Methoxymethyl)-2,3,3a,4,5,9b-hexahydro-1H-pyrrolo[3,2-c]quinolin-1-yl]carbonyl}cyclohexyl)-N′-(6-morpholin-4-ylpyridin-3-yl)urea] | < 10
14 | O=C(N[C@@H]1CCCC[C@@H]1C(=O)N1CC[C@@H]2[C@H](c3ccccc3)Nc3ccc(F)cc3[C@@H]21)c1ccccc1 [Example 61, N-((1R,2S)-2-{[(3aR,4R,9bR)-8-Fluoro-4-phenyl-2,3,3a,4,5,9b-hexahydro-1H-pyrrolo[3,2-c]quinolin-1-yl]carbonyl}cyclohexyl)benzamide] | < 10
15 | O=C(N[C@@H]1CCCC[C@@H]1C(=O)N1CC[C@@H]2[C@H](c3ccccc3)Nc3ccccc3[C@@H]21)c1ccc(Cl)cc1 [Example 114, 4-Chloro-N-((1R,2S)-2-{[(3aR,4R,9bR)-4-phenyl-2,3,3a,4,5,9b-hexahydro-1H-pyrrolo[3,2-c]quinolin-1-yl]carbonyl}cyclohexyl)benzamide] | < 10
16 | COC[C@@H]1Nc2ccccc2[C@H]2[C@@H]1CCN2C(=O)[C@H]1CCCC[C@H]1NC(=O)Nc1ccc(C#N)c(C)c1 [Example 283, N-(4-Cyano-3-methylphenyl)-N′-((1R,2S)-2-{[(3aR,4R,9bR)-4-(methoxymethyl)-2,3,3a,4,5,9b-hexahydro-1H-pyrrolo[3,2-c]quinolin-1-yl]carbonyl}cyclohexyl)urea] | < 1
17 | COC[C@@H]1Nc2ccccc2[C@H]2[C@@H]1CCN2C(=O)[C@H]1CCCC[C@H]1NC(=O)c1ccc(N2CCSCC2)cc1 [Example 291, N-((1R,2S)-2-{[(3aR,4R,9bR)-4-(Methoxymethyl)-2,3,3a,4,5,9b-hexahydro-1H-pyrrolo[3,2-c]quinolin-1-yl]carbonyl}cyclohexyl)-4-thiomorpholin-4-ylbenzamide] | < 1
18 | O=C(N[C@@H]1CCCC[C@@H]1C(=O)N1CC[C@@H]2[C@H](c3ccoc3)Nc3ccccc3[C@@H]21)c1ccccc1 (relative stereo) [Example 16, N-((1R,2S)-2-{[(3aR*,4R*,9bR*)-4-(3-Furyl)-2,3,3a,4,5,9b-hexahydro-1H-pyrrolo[3,2-c]quinolin-1-yl]carbonyl}cyclohexyl)benzamide] | < 1
19 | O=C(N[C@@H]1CCCC[C@@H]1C(=O)N1CC[C@@H]2[C@H](c3ccccc3)Nc3ccccc3[C@@H]21)c1cccc(F)c1 [Example 96, 3-Fluoro-N-((1R,2S)-2-{[(3aR,4R,9bR)-4-phenyl-2,3,3a,4,5,9b-hexahydro-1H-pyrrolo[3,2-c]quinolin-1-yl]carbonyl}cyclohexyl)benzamide] | < 10
20 | CCCCCCNC(=O)N[C@@H]1CCCC[C@@H]1C(=O)N1CC[C@@H]2[C@H](c3ccccc3)Nc3ccccc3[C@@H]21 [Example 154, N-Hexyl-N′-((1R,2S)-2-{[(3aR,4R,9bR)-4-phenyl-2,3,3a,4,5,9b-hexahydro-1H-pyrrolo[3,2-c]quinolin-1-yl]carbonyl}cyclohexyl)urea] | < 1
21 | N#Cc1ccc(NC(=O)N[C@@H]2CCCC[C@@H]2C(=O)N2CC[C@@H]3[C@H](c4ncc[nH]4)Nc4ccccc4[C@@H]32)cc1 [Example 307, N-(4-Cyanophenyl)-N′-((1R,2S)-2-{[(3aR,4R,9bR)-4-(1H-imidazol-2-yl)-2,3,3a,4,5,9b-hexahydro-1H-pyrrolo[3,2-c]quinolin-1-yl]carbonyl}cyclohexyl)urea] | < 1
22 | COc1ccc(C(=O)N[C@@H]2CCCC[C@@H]2C(=O)N2CC[C@@H]3[C@H](c4ccccc4)Nc4ccccc4[C@@H]32)cc1 [Example 90, 4-Methoxy-N-((1R,2S)-2-{[(3aR,4R,9bR)-4-phenyl-2,3,3a,4,5,9b-hexahydro-1H-pyrrolo[3,2-c]quinolin-1-yl]carbonyl}cyclohexyl)benzamide] | < 1
23 | O=C(/C=C/c1ncc[nH]1)N[C@@H]1CCCC[C@@H]1C(=O)N1CC[C@@H]2[C@H](c3ccccc3)Nc3ccccc3[C@@H]21 [Example 134, (2E)-3-(1H-Imidazol-2-yl)-N-((1R,2S)-2-{[(3aR,4R,9bR)-4-phenyl-2,3,3a,4,5,9b-hexahydro-1H-pyrrolo[3,2-c]quinolin-1-yl]carbonyl}cyclohexyl)acrylamide] | < 1
24 | O=C(N[C@@H]1CCCC[C@@H]1C(=O)N1CC[C@@H]2[C@H](c3ncc[nH]3)Nc3ccccc3[C@@H]21)c1ccc(Cl)cc1 [Example 303, 4-Chloro-N-((1R,2S)-2-{[(3aR,4R,9bR)-4-(1H-imidazol-2-yl)-2,3,3a,4,5,9b-hexahydro-1H-pyrrolo[3,2-c]quinolin-1-yl]carbonyl}cyclohexyl)benzamide] | < 1
